Measurements published in ChEMBL document CHEMBL4145521, “Regioselective synthesis of 3,4-diaryl-5-unsubstituted isoxazoles, analogues of natural cytostatic combretastatin A4” (Eur J Med Chem, 2018).

Key:
Format in all cases: functional
786-0 [1] = assay: Cytotoxicity against human 786-0 cells assessed as cell growth at 0.1 uM incubated for 48 hrs by sulforhodamine B assay relative to control; details: 786-0, 48 h, read-out: Activity
OVCAR-8 = assay: Cytotoxicity against human OVCAR8 cells assessed as cell growth at 100 uM incubated for 48 hrs by sulforhodamine B assay relative to control; details: OVCAR-8, 48 h, read-out: Activity
SK-MEL-28 [2] = assay: Cytotoxicity against human SK-MEL-28 cells assessed as cell growth at 0.1 uM incubated for 48 hrs by sulforhodamine B assay relative to control; details: SK-MEL-28, 48 h, read-out: Activity
786-0 [3] = assay: Cytotoxicity against human 786-0 cells incubated for 48 hrs by sulforhodamine B assay; details: 786-0, 48 h
A498 [4] = assay: Cytotoxicity against human A498 cells assessed as cell growth at 100 uM incubated for 48 hrs by sulforhodamine B assay relative to control; details: A498, 48 h, read-out: Activity
NCI-H23 [5] = assay: Cytotoxicity against human NCI-H23 cells assessed as cell growth at 0.1 uM incubated for 48 hrs by sulforhodamine B assay relative to control; details: NCI-H23, 48 h, read-out: Activity
CCRF-CEM = assay: Cytotoxicity against human CCRF-CEM cells incubated for 48 hrs by sulforhodamine B assay
NCI-H23 [6] = assay: Cytotoxicity against human NCI-H23 cells assessed as cell growth at 0.01 uM incubated for 48 hrs by sulforhodamine B assay relative to control; details: NCI-H23, 48 h, read-out: Activity
UACC-62 [7] = assay: Cytotoxicity against human UACC62 cells assessed as cell growth at 100 uM incubated for 48 hrs by sulforhodamine B assay relative to control; details: UACC-62, 48 h, read-out: Activity
SK-MEL-28 [8] = assay: Cytotoxicity against human SK-MEL-28 cells incubated for 48 hrs by sulforhodamine B assay; details: SK-MEL-28, 48 h
A549 [9] = assay: Cytotoxicity against human A549/ATCC cells assessed as cell growth at 1 uM incubated for 48 hrs by sulforhodamine B assay relative to control; details: A549, 48 h, read-out: Activity
SR = assay: Cytotoxicity against human SR cells assessed as cell growth at 1 uM incubated for 48 hrs by sulforhodamine B assay relative to control; details: read-out: Activity
PC-3 [10] = assay: Cytotoxicity against human PC3 cells assessed as cell growth at 1 uM incubated for 48 hrs by sulforhodamine B assay relative to control; details: PC-3, 48 h, read-out: Activity
NCI-H322M = assay: Cytotoxicity against human NCI-H322M cells assessed as cell growth at 1 uM incubated for 48 hrs by sulforhodamine B assay relative to control; details: read-out: Activity
OVCAR-3 = assay: Cytotoxicity against human OVCAR3 cells assessed as cell growth at 100 uM incubated for 48 hrs by sulforhodamine B assay relative to control; details: OVCAR-3, 48 h, read-out: Activity
K562 [11] = assay: Cytotoxicity against human K562 cells assessed as cell growth at 1 uM incubated for 48 hrs by sulforhodamine B assay relative to control; details: K562, 48 h, read-out: Activity
K562 [12] = assay: Cytotoxicity against human K562 cells assessed as cell growth at 100 uM incubated for 48 hrs by sulforhodamine B assay relative to control; details: K562, 48 h, read-out: Activity
EKVX [13] = assay: Cytotoxicity against human EKVX cells assessed as cell growth at 0.01 uM incubated for 48 hrs by sulforhodamine B assay relative to control; details: read-out: Activity
IGROV-1 [14] = assay: Cytotoxicity against human IGROV1 cells assessed as cell growth at 100 uM incubated for 48 hrs by sulforhodamine B assay relative to control; details: IGROV-1, 48 h, read-out: Activity
A549 [15] = assay: Cytotoxicity against human A549/ATCC cells assessed as cell growth at 100 uM incubated for 48 hrs by sulforhodamine B assay relative to control; details: A549, 48 h, read-out: Activity
UACC-62 [16] = assay: Cytotoxicity against human UACC62 cells assessed as cell growth at 1 uM incubated for 48 hrs by sulforhodamine B assay relative to control; details: UACC-62, 48 h, read-out: Activity
EKVX [17] = assay: Cytotoxicity against human EKVX cells assessed as cell growth at 10 uM incubated for 48 hrs by sulforhodamine B assay relative to control; details: read-out: Activity
PC-3 [18] = assay: Cytotoxicity against human PC3 cells incubated for 48 hrs by sulforhodamine B assay; details: PC-3, 48 h
MDA-MB-468 = assay: Cytotoxicity against human MDA-MB-468 cells assessed as cell growth at 10 uM incubated for 48 hrs by sulforhodamine B assay relative to control; details: MDA-MB-468, 48 h, read-out: Activity
IGROV-1 [19] = assay: Cytotoxicity against human IGROV1 cells assessed as cell growth at 0.1 uM incubated for 48 hrs by sulforhodamine B assay relative to control; details: IGROV-1, 48 h, read-out: Activity
SK-MEL-28 [20] = assay: Cytotoxicity against human SK-MEL-28 cells assessed as cell growth at 100 uM incubated for 48 hrs by sulforhodamine B assay relative to control; details: SK-MEL-28, 48 h, read-out: Activity
NCI/ADR-RES = assay: Cytotoxicity against human NCI/ADR-RES cells assessed as cell growth at 0.1 uM incubated for 48 hrs by sulforhodamine B assay relative to control; details: read-out: Activity
A498 [21] = assay: Cytotoxicity against human A498 cells incubated for 48 hrs by sulforhodamine B assay; details: A498, 48 h
NCI-H226 = assay: Cytotoxicity against human NCI-H226 cells assessed as cell growth at 0.01 uM incubated for 48 hrs by sulforhodamine B assay relative to control; details: NCI-H226, 48 h, read-out: Activity
MOLT-4 = assay: Cytotoxicity against human MOLT4 cells assessed as cell growth at 0.01 uM incubated for 48 hrs by sulforhodamine B assay relative to control; details: MOLT-4, 48 h, read-out: Activity
A549 [22] = assay: Cytotoxicity against human A549/ATCC cells assessed as cell growth at 0.01 uM incubated for 48 hrs by sulforhodamine B assay relative to control; details: A549, 48 h, read-out: Activity
COLO 205 = assay: Cytotoxicity against human COLO205 cells incubated for 48 hrs by sulforhodamine B assay; details: COLO 205, 48 h
[23] = read-out: LC50 (the source's name)
[24] = read-out: pLC50 (the source's name) (converted)

## COc1ccc(-c2nocc2-c2cc(OC)c(OC)c(OC)c2)cc1
786-0 [1]
  growth at 0.1 µM: 54%
OVCAR-8
  growth at 100 µM: 4%
SK-MEL-28 [2]
  growth at 0.1 µM: 61%
786-0 [3]; read-out: GI50
  GI50: 0.174 µM
786-0 [3]; read-out: LC50
  LC50: > 100 µM
786-0 [3]; read-out: TGI
  TGI: 38.6 µM
786-0 [3]; read-out: pGI50 (converted)
  GI50: 0.174 µM
786-0 [3]; read-out: pLC50 (converted)
  LC50: > 100 µM
786-0 [3]; read-out: pTGI (converted)
  TGI: 38.9 µM
A498 [4]
  growth at 100 µM: -33%
NCI-H23 [5]
  growth at 0.1 µM: 67%
CCRF-CEM; read-out: GI50
  GI50: 0.404 µM
CCRF-CEM; read-out: LC50
  LC50: > 100 µM
CCRF-CEM; read-out: TGI
  TGI: > 100 µM
CCRF-CEM; read-out: pGI50 (converted)
  GI50: 0.407 µM
CCRF-CEM; read-out: pLC50 (converted)
  LC50: > 100 µM
CCRF-CEM; read-out: pTGI
  TGI: > 100 µM
NCI-H23 [6]
  growth at 0.01 µM: 94%
UACC-62 [7]
  growth at 100 µM: -38%
SK-MEL-28 [8]; read-out: GI50
  GI50: 4.96 µM
SK-MEL-28 [8]; [23]
  CC50: > 100 µM
SK-MEL-28 [8]; read-out: TGI
  TGI: 80.8 µM
SK-MEL-28 [8]; read-out: pGI50 (converted)
  GI50: 5.01 µM
SK-MEL-28 [8]; [24]
  CC50: > 100 µM
SK-MEL-28 [8]; read-out: pTGI (converted)
  TGI: 81.3 µM
A549 [9]
  growth at 1 µM: 28%
SR
  growth at 1 µM: 30%
PC-3 [10]
  growth at 1 µM: 18%
NCI-H322M
  growth at 1 µM: 46%
OVCAR-3
  growth at 100 µM: -21%
K562 [11]
  growth at 1 µM: 14%
K562 [12]
  growth at 100 µM: 4%
EKVX [13]
  growth at 0.01 µM: 83%
IGROV-1 [14]
  growth at 100 µM: 2%
A549 [15]
  growth at 100 µM: 6%
UACC-62 [16]
  growth at 1 µM: 27%
EKVX [17]
  growth at 10 µM: 32%
PC-3 [18]; read-out: GI50
  GI50: 0.0671 µM
PC-3 [18]; read-out: LC50
  LC50 (concentration killing 50% of cells): > 100 µM
PC-3 [18]; read-out: TGI
  TGI: 42.5 µM
PC-3 [18]; read-out: pGI50 (converted)
  GI50: 0.0676 µM
PC-3 [18]; read-out: pLC50 (converted)
  LC50 (concentration killing 50% of cells): > 100 µM
PC-3 [18]; read-out: pTGI (converted)
  TGI: 42.7 µM
MDA-MB-468
  growth at 10 µM: 3%
IGROV-1 [19]
  growth at 0.1 µM: 54%
SK-MEL-28 [20]
  growth at 100 µM: -5%
NCI/ADR-RES
  growth at 0.1 µM: 34%
A498 [21]; read-out: GI50
  GI50: 0.0336 µM
A498 [21]; read-out: LC50
  LC50: > 100 µM
A498 [21]; read-out: TGI
  TGI: 0.816 µM
A498 [21]; read-out: pGI50 (converted)
  GI50: 0.0339 µM
A498 [21]; read-out: pLC50 (converted)
  LC50: > 100 µM
A498 [21]; read-out: pTGI (converted)
  TGI: 0.813 µM
NCI-H226
  growth at 0.01 µM: 100%
MOLT-4
  growth at 0.01 µM: 99%
A549 [22]
  growth at 0.01 µM: 100%
COLO 205; read-out: GI50
  GI50: 0.0581 µM
COLO 205; [23]
  CC50: > 100 µM
COLO 205; read-out: TGI
  TGI: 1.91 µM
COLO 205; read-out: pGI50 (converted)
  GI50: 0.0575 µM
COLO 205; [24]
  CC50: > 100 µM
COLO 205; read-out: pTGI (converted)
  TGI: 1.91 µM
